The test system of one data set is EEEH protein. The data set can be described thus: EEEH expression in woodchucks after sublingual administration. Type of data set: in vivo. To be noted: following absorption by the sublingual route. The protocol: Compound 5 was administered by sublingual route to woodchucks, at a dose of […] in Transcutol, and blood was drawn periodically for analysis. Test results are provided in Tables 4 and 5 and FIG. 3 and FIG. 4.

The subject of data set [1] is IRF3-luciferase reporter gene (activation of NOD2). The data set can be described thus: IRF3-luciferase reporter induction in HLE A549 cells endogenously expressing NOD2. To be noted: for Fold induction of IRF3 luciferase activity: 1 µM; for fold induction at 1 µM: Homo sapiens, A549, 12 h. Type of data set: cell-based, human. How it is done:
In the primary assays, di- and trinucleotide compounds were tested for the induction of IRF3 expression in HLE A549 cells, which are known to express NOD2.
HLE cells normally endogenously express NOD2. To determine if short oligonucleotide compounds activate NOD2, HLE cells transfected with IRF3 plasmid were employed. IRF3-luciferase transfected cells were incubated with either DMSO only (UT) or test compounds (1 μM). Following 12 h incubation, Luciferase activity was measured using Dual-Luciferase Reporter Assay System (Promega) according to the manufacturer's protocol. Transection efficiency was normalized by measuring the expression of renilla Luciferase. Luciferase units (i.e., fold induction) were measured by standard methodology.

For data set [2], the system named is Human Respiratory Syncytial Virus (RSV). The experiment in a line: RSV infectivity, plaque assay. The format is cell-based. To be noted: human lung epithelial cells, RSV 0.5 MOI, 24 h post-infection. How it is done: (A) RSV infectivity in untreated (UT) and SMNH-treated cells. Human lung epithelial cells were infected with RSV (0.5 MOI) in the absence (DMSO only) or presence of various SMNH compounds (1 μM). At 24 h post-infection, the medium supernatant was collected and the viral titer in the supernatant was assayed by plaque assay analysis using CV-1 cell monolayer, 100% RSV infection represents viral titer from cells incubated with DMSO only (UT cells). The values represent mean±S.D. for three independent determinations. S.D. is shown as error bars.
(B) A typical plaque assay showing RSV infectivty in UT and SMNH-treated cells. Culture supernatant from RSV infected cells (+/− SMNH) was added to CV-1 cells at a dilution of […]. Plaques were observed and quantitated on methylcellulose after crystal violet staining.

For data set [3], the system named is HBV wild type and drug resistant strains. The experiment in a line: HepG2.2.15 HBV assay. The conditions noted are these: Hepatitis B virus, HepG2.2.15, read-out: EC50, inhibition of intracellular HBV replication. Type of data set: cell-based. How it is done: Selected compounds were evaluated in in vitro cell-based HepG2.2.15 HBV assay.
Antiviral analysis. For the antiviral analyses, confluent cultures of 2.2.1.5 cells were maintained on 96-well flat-bottomed tissue culture plates in RPMI1640 medium with 2% fetal bovine serum. Cultures (6 per each test concentration on two replicate plates) were treated with 9 consecutive daily doses of the test compounds. Medium was changed daily with fresh test compounds. HBV nucleic acid and protein levels were measured 24 hours after the last treatment. Extracellular (virion) HBV DNA levels were assessed by quantitative blot hybridization. Intracellular HBV DNA levels were measured by quantitative Southern blot hybridization.

The next data set concerns hepatitis B virus (HBV). The data set can be described thus: Effect of i.p. administration on hepatitis B virus in transgenic mice. Type of data set: in vivo. The protocol: Compound 5 was evaluated in transgenic mice expressing hepatitis B virus (HBV). […] Its activity was also similar to the adefovir dipivoxil (ADV) anti-HBV activity; however, the two compounds seemed to suppress different HBV DNA species. […] In contrast, Compound 5 appeared to indiscriminately remose all HBV DNA species, including the bands typically left by ADV, which may reflect a different mechanism of action other than classical chain termination. Serum HBe, liver HBs, and HBc were not affected by Compound 5 treatment, which is consistent in transgenic mice with compounds that block viral synthesis “downstream” from mRNA synthesis, such as blockage of polymerase activities. A minimal effective dosage was determined to be between 1.6-0.5 mg/kg/day, which was similar to ADV minimal effective dosage of 1.0 mg/kg/day (Table 8).

For data set [4], the system named is HCV replicon AVA5 (sub-genomic (CON1), genotype 1b). The experiment in a line: Primary anti-HCV assay, replicon cell line AVA5. The format is cell-based. The conditions noted are these: 3-day assay. The protocol:
Antiviral activity against HCV was assessed in a 3-day assay (Okuse, et al., 2005; Antiviral. Res. 65:23; Korba, et al., 2008, Antiviral Res. 77:56) using the stably-expressing HCV replicon cell line, AVA5 (sub-genomic (CON1), genotype 1b) (Blight, et al., 2000; Science 290:1972) maintained as sub-confluent cultures on 96-well plates. Antiviral activity was determined by blot hybridization analysis of intracellular HCV RNA (normalized to the level of cellular B-actin RNA in each culture sample). Cytotoxicity was assessed by neutral red dye uptake in cultures maintained in parallel plates.
EC50, EC90, and CC50 values were calculated by linear regression analysis (MS EXCEL®, QuattroPro®) using data combined from all treated cultures Korba & Gerin, 1992, Antivir. Res. 19:55; Okuse, et al., 2005, Antivir. Res. 65:23). Standard deviations for EC50 and EC90 values are calculated from the standard errors generated by the regression analyses, EC50 and EC90 are drug concentrations at which a 2-fold, or a 10-fold depression of intracellular HCV RNA (relative to the average levels in untreated cultures), respectively was observed. […] Recombinant human interferon 2b (PBL laboratories, Inc.) is used as an assay control.

A short description of data set [5]: In vitro cytotoxicity, MTT assay. The format is cell-based. To be noted: cattle (MDBK), African green monkey (Vero), human (HFF). The protocol: Compounds 5 and 6k have excellent safety profile with CC50>1000 micromolar in a number of cell lines. Standard MTT assays were performed in 96-well plates using the Promega CellTiter96 Non-radioactive Cell Proliferation Assay Kit in conjunction with a 96-well Plate Reader (ThermoMax, Molecular devices), and MDBK, Vero, and HFF cell lines (obtained from ATCC). Several controls were employed including the nucleoside analogs 3TC, AZT, and ddC, as well as, media without drugs. SDS was used as a positive cytotoxic control. The compounds were tested in triplicate at concentrations of 100, 300, and 1000 μM. Following a 24-hour incubation of cells with the test substance, the MTT assay was carried out.

A further data set has as its system macrophages. The format is cell-based.
The mark [6] stands for this setting: 1 μM, 12 h, HLE A549 cells, SMNH treated vs. untreated cells.
The mark [7] stands for this setting: 100 mg/kg/d i.p. once daily 14 days, group listed with C:E:S vehicle.
Where [8] appears, read: 100 mg/kg/d i.p. once daily 14 days, group listed with saline placebo.

Structures are written as SMILES. Like-named read-outs stand apart in the source and are kept apart here. Bounds are passed on as bounds.

Regarding `CO[C@H]1C(OP(=O)(S)OC[C@H]2O[C@@H](n3cnc4c(N)ncnc43)CC2O)[C@@H](CO)O[C@H]1n1ccc(=O)[nH]c1=O` (stereo partly drawn) [Compound 5, 3-dApsU2′-OMe], in the data set on EEEH protein, the “kinetics of induction of the EEEH protein” value is recorded as “very rapid”. Further, in data set [1] (setting [6]), the “Fold induction of IRF3 luciferase activity” value was determined as 25 fold. Further, the fold induction at 1 µM in data set [1] (1 μM, 12 h, HLE A549 cells, SMNH treated vs. untreated cells, read-out: Fold induction of IRF3 luciferase activity) fell in the range of 15 to 20. In addition, the “% inhibition of RSV at 1 μM” value in data set [2] (1 µM) was found to be 82%. The EC50 in data set [3] was in the range of 0.3 to 2 µM. Further, in the data set on hepatitis B virus (HBV) (setting [7]), the “Liver HBV DNA (mean pg viral/μg cellular DNA ± stdev)” value is 1.7 ± 1.5 (9) pg viral/μg cellular DNA, the “Liver HBV RNA (mean relative units ± stdev)” value is 1.7 ± 0.3 relative units, the “Liver HBeAg (mean stained cells/100 × field ± stdev)” value is recorded as 24 ± 15 stained cells/100 × field and the “Serum HBV DNA (mean log10 genome equivalents/mL serum ± stdev)” value was 5.4 ± 0.6 (7) log10 genome equivalents/mL serum. Also, in the data set with hepatitis B virus (HBV) (setting [7]), the “Serum HBeAg (mean ng/mL ± stdev)” value was 1241 ± 279 ng/mL and the “Serum HBsAg (mean ng/mL ± stdev)” value was 28 ± 15 ng/mL. Moreover, in the data set with hepatitis B virus (HBV) (setting [8]), the “Liver HBV DNA (mean pg viral/μg cellular DNA ± stdev)” value is on record as 0.3 ± 0.4 (8) pg viral/μg cellular DNA and the “Serum HBV DNA (mean log10 genome equivalents/mL serum ± stdev)” value is given as 5.0 ± 0.3 (8) log10 genome equivalents/mL serum. Further, the “effect on liver HBV DNA” value in the data set with hepatitis B virus (HBV) (i.p. once daily 14 days, 100 mg/kg/day, saline or cremaphor:ethanol:saline vehicles) is listed as “significantly reduced liver HBV DNA”. Further, the “effect on serum HBe, liver HBs, and HBc” value with hepatitis B virus (HBV) (i.p. treatment) was “not affected”. In data set [4] (Hepatitis C virus, Ava5, 72 h), the concentration giving a half-maximal response (EC50) is around 3 µM. In data set [5], this compound registered a half-maximal cytotoxic concentration (CC50) at 24 h above 1000 µM. In addition, the “induction of IL-2” value in the data set with macrophages is on record as “showed induction of IL-2”.

For `CO[C@H]1C(OP(=O)(OC[C@H]2O[C@@H](n3cnc4c(N)ncnc43)CC2O)SCOC(=O)OC(C)C)[C@@H](CO)O[C@H]1n1ccc(=O)[nH]c1=O` (stereo partly drawn) [Compound 6k], the “Fold induction of IRF3 luciferase activity” value in data set [1] (setting [6]) is listed as 22 fold. Further, the fold induction at 1 µM in data set [1] (read-out: Fold induction of IRF3 luciferase activity, 1 μM, 12 h, HLE A549 cells, SMNH treated vs. untreated cells) fell in the range of 15 to 20. In data set [2] (human respiratory syncytial virus, Epithelial cell, 24 h), this compound displayed an inhibition at 1 µM of 60 to 80%. Moreover, in data set [3], the half-maximal effective concentration (EC50) lay in the range of 0.3 to 2 µM. Also, the “EC90, 10-fold depression of intracellular HCV RNA” value in data set [4] is reported as “about 8 micromolar”. In addition, the CC50 at 24 h in data set [5] (MTT, 24-hour incubation, tested at 100, 300, and 1000 μM, read-out: CC50) was above 1000 µM.

The values are drawn from patent US20150329864A1, “DESIGN OF OLIGONUCLEOTIDE ANALOGS AS THERAPEUTIC AGENTS” (SPRING BANK PHARMACEUTICALS, INC., priority 2010, published 2015).
